Consider six compounds from patent US9951076B2, “Deuterated pentylenetetrazoles for improving cognitive function” (Balance Therapeutics, Inc., priority 2011, dated 2018).

Data set [1] can be described thus: Metabolic stability in human liver microsomes. Format: in vitro ADME. As to conditions: for t1/2 increase over t1/2 of PTZ / in vitro t1/2 compared to the t1/2 of PTZ: human liver microsomes; for in vitro t1/2 compared to the t1/2 of PTZ: under the assay conditions tested; for half-life at 1 μM / microsomal CLint at 1 μM: pH 7.4, 1 mg/mL human liver microsomes, 1 μM test compound, NADPH regenerating system, 37° C., 0-45 min. How it is done: Human liver microsomes (Lot# FJM) were obtained from Celsis (Baltimore, Md.). Components of the NADPH regenerating system solution A (Lot#29850) and B (Lot#28594) were obtained from BD Gentest (Woburn, Mass.). […] All solvents and buffers were obtained from commercial sources and used without further purification.
NADPH regenerating system (1.3 mM NADP^+, 3.3 mM glucose-6-phosphate, 0.4 U/mL glucose-6-phosphate dehydrogenase, and 3.3 mM magnesium chloride) were prepared by mixing 5 volume of solution A and 1 volume of solution B and pre-warmed at 37° C. in a shaking water bath. Reactions were initiated by adding NADPH regenerating system to the incubation mixtures. After 0, 5, 10, 15, 30 and 45 min of incubation, 0.1 mL reaction mixtures were removed from the incubation plate and mixed with 0.15 mL of ice-cold acetonitrile in an appropriate well of a 96-well crash plate. The 96-well crash plate was placed on ice for 15 min, and samples were centrifuged (2,500 g, 10 min, 4° C.) to precipitate protein. The supernatants were diluted 1:1 (v/v) with water containing 0.015 μM verapamil (internal standard) in 96-well shallow injection plate, which was sealed and submitted for LC/MS or LC/MS/MS analysis utilitzing a API 150 single quadrupole mas spectrometer.
The residual compound remaining (% R) was determined from LC/MS peak areas by comparison to a zero time point. Metabolic half-life (t1/2) and intrinsic clearance (CLint) values were calculated from the slope of ln(%) plotted vs. time.

For data set [2] the following is noted: orally administered, humans; cited from earlier work.
For data set [3] the following is noted: cited from earlier work.

Regarding `[2H]C1([2H])c2nnnn2C([2H])([2H])C([2H])([2H])C([2H])([2H])C1([2H])[2H]` [Compound 1, d10-6,7,8,9-Tetrahydro-5H-tetrazolo[1,5-a]azepine], in data set [1], the “t1/2 increase over t1/2 of PTZ” value is reported as 45.1%, the “in vitro t1/2 compared to the t1/2 of PTZ” value was “increased”, the half-life at 1 μM was determined as 12.6 h and the microsomal CLint at 1 μM was determined as 0.9 µL/min/mg.

With `[2H]C1([2H])CCCC([2H])([2H])n2nnnc21` [Compound 2, 6,6,10,10-d4-6,7,8,9-Tetrahydro-5H-tetrazolo[1,5-a]azepine], in data set [1], the “t1/2 increase over t1/2 of PTZ” value is 6.3%, the “in vitro t1/2 compared to the t1/2 of PTZ” value was “increased”, the half-life at 1 μM worked out at 9.23 h and the microsomal CLint at 1 μM was determined as 1.3 µL/min/mg.

On to `[2H]C1([2H])Cc2nnnn2CC([2H])([2H])C1([2H])[2H]` [Compound 3], for which, in data set [1], the “t1/2 increase over t1/2 of PTZ” value is given as −2.9%, the half-life at 1 μM came out at 8.43 h and the microsomal CLint at 1 μM was 1.4 µL/min/mg.

In the case of `[2H]C1([2H])CC([2H])([2H])c2nnnn2C([2H])([2H])C1` [Compound 4, 6,6,8,8,10,10-d6-6,7,8,9-tetrahydro-5H-tetrazolo[1,5-a]-azepine], in data set [1], the “t1/2 increase over t1/2 of PTZ” value was found to be 8.8%, the “in vitro t1/2 compared to the t1/2 of PTZ” value is reported as “increased”, the half-life at 1 μM amounted to 9.45 h and the microsomal CLint at 1 μM was found to be 1.2 µL/min/mg.

In data set [1], `C1CCc2nnnn2CC1` [PTZ, pentylenetetrazole] had a half-life at 1 μM of 8.68 h and an intrinsic clearance (microsomal CLint) at 1 μM of 1.3 µL/min/mg. In data set [2], the kindling dose result is “approximately 20 mg/kg”. In addition, the “time of peak concentration in blood” value in data set [3] (after intravenous (IV) or intraperitoneal (IP) delivery) was no more than 10 min. The plasma half-life entry in data set [3] (in vivo) was “about 60 minutes”.

For `C[C@]12CC[C@H]3[C@@H](CCC4=CC(=O)CC[C@@]43C)[C@@H]1CC[C@@H]2O` [testosterone, reference compound], the microsomal CLint at 1 μM in data set [1] is 76 µL/min/mg.

What is called half-life is the time needed for the level to fall by half in the phase considered. Read a low half-life as rapid decline. What is called microsomal CLint is the rate of metabolic loss divided by the concentration. The low end stands for slow turnover, the high end for rapid turnover.
